Patent US11666580B2, “Mechanism of resistance to bet bromodomain inhibitors” (Dana-Farber Cancer Institute, Inc., priority 2015, dated 2023)

Assays:
[1] = test system: TNBC cells (SUM159 and MDA-MB-231); assay: Senescence β-galactosidase staining; type: cell-based, human; details: JQ1 500 nM, 72 h
Protocol: (§1) Cell viability and growth assays (FIGS. 1A-1B, FIGS. 3A-3E, 3G, FIGS. 5D-5F, FIGS. 6C, 6E, 6I, FIG. 7A, FIG. 10D, FIGS. 14A-14C), cycle, apoptosis, and MDR assays were performed in triplicates and repeated 2-3 times. For cell proliferation assays, cells were plated at 500 cells per well in 96-well plates and treated the next day with inhibitors, DMSO or doxycycline (500 ng). Cells were cultured at 37° C. with 5% CO2 in the media described-above, and cell viability was measured using CellTiter-Glo three days after treatments. For cell growth assays, cells were plated at 5000 (SUM159) or 20000 (SUM149) cells per well in 6-well plates and treated the next day with inhibitors. Cells were counted every three days by cell counter. Cellular apoptosis was analyzed with an APC AnnexinV/7ADD Apoptosis Detection kit (BD Pharmingen). AnnexinV/7AAD assessments and cell cycle graphics were generated using FlowJo software V7.6.1 for Windows (Tree Star). Senescence Beta-gal staining was performed using Senescence β-Galactosidase staining kit from Cell signaling. Briefly, after JQ1 treatment (500 nM) for 72 h, SUM159 and MDA-MB-231 cells were fixed by Fixative Solution for 15 min, followed by β-Galactosidase solution incubation overnight at 37° C. The staining was checked under microscope for the development of blue color. […] The cells were analyzed by fluorescent microscope and FACS.

TNBC cells = assay: Immunofluorescence microscopy for basal and luminal markers; type: cell-based, human; details: 3 days after JQ1 (500 nM)
Protocol: Antibodies used for immunofluorescence were CK18 (Dako, M7010), CK17 (Dako, M7046), HMW (Dako, M0630), LMW (Dako, M0631), CD44 (NeoMarkers, MS-668-P1), CD24 (NeoMarkers, MS-1279-P1), p-STAT3 (Cell Signaling, 9145S), VIM (Dako, M073501), CDH1 (BD Biosciences, 610181), FLAG (Sigma, F1804), BrdU (Roche, 11170376001). Immunofluorescence experiments were performed in cultured cells or in whole sections of formalin-fixed paraffin embedded (FFPE) xenograft tumors. The staining was performed as described^50. Antibody dilutions were as follows: pSTAT3 (1:25), CD44 (1:100), CD24 (1:100), CK18 (1:200), CK17 (1:200), HMK (1:200), LMK (1:200), VIM (1:100), CDH1 (1:100), FLAG (1:50), and BrdU (1:200).

[2] = test system: patient-derived primary human TNBC xenografts; assay: Xenograft assay, patient-derived TNBC; type: in vivo, mice; details: two weeks of JQ1, 50 mg/kg daily
Protocol: (§2) For xenograft assays 5-6-weeks old female CrTac:NCr-Foxn1^nu and NOD.Cg-Prkdc^scid Il2rg^tm1Sug/JicTac mice were purchased from Taconic. Tumors were induced by bilateral orthotopic mammary fat pad injection of 1×10^6 cells in 50% Matrigel (BD Biosciences) in DMEM/F12 or Medium 171 (except for IDC50-X cells, which were injected with 3% FBS and 4 mg/ml collagen gel in Medium 171). Animal experiments were conducted following protocol 11-023 approved by the Dana-Farber Cancer Institute Animal Care and Use Committee.

[3] = biological target: chromatin-bound BRD4 in SUM159 cells (Homo sapiens, UniProt O60885); details: SUM159, JQ1 exposure
Protocol: Chem-seq was performed essentially as described^27. ChIP-seq: SUM159 and SUM159R cells (4×10^7) were grown in SUM Medium. The media were then removed and replaced with media containing 1% formaldehyde (EM grade; tebu-bio) and crosslinked for 8 min. Crosslinking was quenched by adding glycine to a final concentration of 0.2 M. The cells were washed with ice-cold PBS, harvested in PBS, and the cell pellet was washed with PBS. The nuclear fraction was extracted by first resuspending the pellet in 10 ml of LB1 buffer (50 mM HEPES-KOH [pH 7.5], 140 mM NaCl, 1mMEDTA, 10% glycerol, 0.5% NP-40 or Igepal CA-630, and 0.25% Triton X-100) for 10 min at 4° C. Cells were pelleted, resuspended in 10 ml of LB2 buffer (10 mM Tris-HCL [pH 8.0], 200 mM NaCl, 1 mM EDTA, and 0.5 mM EGTA), and mixed for 5 min. Cells were pelleted and resuspended in 300 μl of LB3 buffer (10 mM Tris-HCl [pH 8], 100 mM NaCl, 1 mM EDTA, 0.5 mM EGTA, 0.1% Na-deoxycholate, and 0.5% N-lauroylsarcosine) and sonicated in a covaris sonicator for 10 min. A total of 30 μl of 10% Triton X-100 was added, and lysate was centrifuged for 10 min at 20,000 rcf to purify the debris. The supernatant was then incubated with 100 μl of magnetic beads (Life Technologies) prebound with 20 μg BRD4 antibody (Bethyl, A301-985A), and immunoprecipitation (IP) was conducted overnight in the cold room. […]

[4] = test system: tumors derived from SUM159; assay: Xenograft assay, SUM159; type: in vivo, mice; details: two weeks of JQ1, 50 mg/kg daily
Protocol: as §2

[5] = test system: pSTAT3, pJAK2 and MYC in SUM159 cells; assay: Immunoblot kinetic study of signaling factors after JQ1; type: cell-based, human
Source text: Immunoblotting and immunoprecipitation experiments were repeated 2-3 times.

SUM159 cells = assay: Apoptosis (sub-G1 fraction and Annexin-V staining); type: cell-based, human; details: prolonged exposure 48-72 hours, JQ1 500 nM
Protocol: as §1, with “FACS. […]” for “FACS.”

[6] = test system: xenografts derived from SUM159R cells; assay: Xenograft assay, SUM159R (BBI-resistant SUM159); type: in vivo, mice; details: JQ1 for 30 days
Protocol: as §2

SUM159 and SUM149 cells = assay: RNA-seq following JQ1 treatment; type: cell-based, human; details: different time points following JQ1 500 nM
Protocol: Quantifying changes in gene expression of SE proximal genes. Genes within 50 kb of SE in SUM159 or SUM149 were identified and filtered for expression status (>1 FPKM expression in any sample), and filtered to remove non poly-adenylated transcripts (e.g. microRNAs). For SUM159, log2 fold changes in gene expression at SE associated genes or all expressed genes was compared at 3, 12, and 24 hours post JQ1 treatment (FIG. 2F). For SUM149, comparisons were made at 12 hours post JQ1 treatment (Extended Data FIG. 3B). The statistical significance of differences between distributions of changes was also assessed using a Welch's two-tailed t test.

Cc1sc2c(c1C)C(c1ccc(Cl)cc1)=N[C@@H](CC(=O)OC(C)(C)C)c1nnc(C)n1-2 [JQ1]
Acidic β-galactosidase activity (senescence) [1]: markedly increased acidic β-galactosidase activity
Basal markers (HMW cytokeratins) (TNBC cells): decrease of high molecular-weight (HMW) cytokeratins
Luminal markers (LMW cytokeratins, CK18) (TNBC cells): elevation of low molecular-weight (LMW) cytokeratins and cytokeratin 18 (CK18)
Tumor growth [2]: efficiently inhibited the growth of established tumors
BRD4 occupancy at Chem-seq-defined SE regions [3]: depleted of BRD4
Tumor growth [4]: efficiently inhibited the growth of established tumors
pSTAT3 and pJAK2 levels ([5]; SUM159, after 12 hours): decrease in pSTAT3 and pJAK2
MYC level ([5]; SUM159, at 24 hours): dose-responsive decrease in MYC
Apoptotic response (sub-G1 fraction, Annexin-V staining) (SUM159 cells): elicited an apoptotic response
Tumor response to JQ1 treatment [6]: not responsive
Expression of super-enhancer associated genes versus all active genes (SUM159 and SUM149 cells): significantly more likely to be down-regulated
